Experimental data reported in patent publication EP4803519A1, “NOVEL PRMT5 INHIBITOR AND USE THEREOF” (Shanghai Apeiron Therapeutics Company Limited, priority 2023, dated 2025).

Legend:
Format in all cases: cell-based
[1] = system: HCT-116 MTAP(-/-)deleted cells; assay: Inhibitory activity on proliferation of HCT-116 MTAP(-/-)deleted cells (Cell-Titer Glo); details: Homo sapiens, 144 h, incubated 6 d, 0-1,000 nM
Outline: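 HCT-116 MTAP(-/-) cells in RPMI 1640 with 10% FBS were seeded overnight, then exposed to compound (10 points, 2.5-fold dilutions from 1,000 nM; 0.2% DMSO) for 6 d at 37 °C. Viability was read by CellTiter-Glo luminescence.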

HCT-116 wild-type cells = assay: Inhibitory activity on proliferation of HCT-116 wild-type cells (Cell-Titer Glo); details: Homo sapiens, 144 h, incubated 6 d, 0-10,000 nM
Outline: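 HCT-116 wild-type cells in RPMI-1640 with 10% FBS were plated overnight, then exposed to compound for 6 d at 37°C (0–10,000 nM final, 2.5-fold, 10 points, 0.2% DMSO). Viability was read by Cell-Titer Glo luminescence.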

[2] = system: LU99 MTAP(-/-)deleted cells; assay: Inhibitory activity on proliferation of LU99 MTAP(-/-)deleted cells (Cell-Titer Glo); details: Homo sapiens, Lu-99, 144 h, incubated 6 d, 0-1,000 nM
Experimental: (§1) Materials and cells: LU99 MTAP deleted cell line was purchased from Kyinno Biotechnology (China); cell culture medium and fetal bovine serum were purchased from Thermo Fisher Scientific (USA); 384-well plates were purchased from PerkinElmer (USA); Cell-Titer Glo kits were purchased from Promega (USA).
Cell culture: LU99 MTAP(-/-)deleted cells were cultured with medium containing 10% fetal bovine serum at 37°C in 5% carbon dioxide. Only cells in the logarithmic growth phase could be used for the test.
(§2) Test of inhibitory activity on cell proliferation: The Cell-Titer Glo kit was used to test the proliferation inhibitory activity of the compounds on LU99 MTAP(-/-)deleted cells. The cell concentration was adjusted, rendering that cells were inoculated into a 384-well plate at 40 µL per well and incubated overnight at 37°C and 5% carbon dioxide. 40 nL of the compound was added to each well to reach a final concentration of 0-1,000 nM (starting concentration 1,000 nM, 2.5-fold dilution, 10 points), and the cell plate with 0.2% DMSO content was incubated at 37°C and 5% carbon dioxide for 6 d. 40 µL of Cell-Titer Glo reagent was added to test cell viability.

[3] = system: LU99 MTAP overexpressing cells; assay: Inhibitory activity on proliferation of LU99 MTAP overexpressing cells (Cell-Titer Glo); details: Homo sapiens, Lu-99, 144 h, incubated 6 d, 0-10,000 nM
Experimental: as §1, with “overexpressing” for “deleted”
Cell culture: LU99 MTAP overexpressing cells were cultured with medium containing 10% fetal bovine serum at 37°C in 5% carbon dioxide. Only cells in the logarithmic growth phase could be used for the test.
as §2, with “MTAP overexpressing” for “MTAP(-/-)deleted”, “0-10,000” for “0-1,000”, “10,000” for “1,000”

| IC50 [1] | IC50 (HCT-116 wild-type cells) | SMILES | IC50 [2] | IC50 [3] |
| --- | --- | --- | --- | --- |
| 7.9 nM | 3850 nM | CN(C(=O)c1ccc2nc(N)c3cnn(C)c3c2c1)[C@@H]1COC(C)(C)c2cc(N3CC4(COC4)C3)ccc21 [Example 49, (S)-4-amino-N-(1,1-dimethyl-7-(2-oxa-6-azaspiro[3.3]heptan-6-yl)isochroman-4-yl)-N,1-dimethyl-1H-pyrazolo[4,3-c]quinoline-8-carboxamide] | 19.2 nM | 5890 nM |
| 874 nM | > 10000 nM | CN(C(=O)c1cc2c3c(c(N)nc2cn1)COC3)[C@H]1COC2(CCC2)c2cc(C(F)(F)F)ccc21 [Example 45, (R)-4-amino-N-methyl-N-(7'-(trifluoromethyl)spiro[cyclobutane-1,1'-isochroman]-4'-yl)-1,3-dihydrofuro[3,4-c][1,7]naphthyridine-8-carboxamide] | 944 nM | > 10000 nM |
| 3.1 nM | 447 nM | CN(C(=O)c1ccc2nc(N)c3cnn(C)c3c2c1)[C@H]1COC(C)(C)c2nc(C(F)(F)F)ccc21 [Example 51] | 4.9 nM | 711 nM |
| 5 nM | 2520 nM | CN(C(=O)c1ccc2nc(N)c3cnn(C)c3c2c1)C1COC(C)(C)c2cc(-c3cnn(C)c3)ccc21 (stereo not shown) [Example 7, 4-amino-N-(1,1-dimethyl-7-(1-methyl-1H-pyrazol-4-yl)isochroman-4-yl)-N,1-dimethyl-1H-pyrazolo[4,3-c]quinoline-8-carboxamide] | 3.6 nM | 3100 nM |
| 21.2 nM | 2610 nM | CC1OCc2c1c(N)nc1ccc(C(=O)N(C)C3COC(C)(C)c4cc(C(F)(F)F)ccc43)cc21 (stereo not shown) [Example 12, 4-Amino-N-(1,1-dimethyl-7-(trifluoromethyl)isochroman-4-yl)-N,3-dimethyl-1,3-dihydrofuro[3,4-c]quinoline-8-carboxamide] | 32.3 nM | 1990 nM |
| 10.1 nM | 2060 nM | CN(C(=O)c1ccc2nc(N)c3c(c2c1)COC3)C1COC(C)(C)c2cc(-c3ccnn3C)ccc21 (stereo not shown) [Example 10, 4-Amino-N-(1,1-dimethyl-7-(1-methyl-1H-pyrazol-5-yl)isochroman-4-yl)-N-methyl-1,3-dihydrofuro[3,4-c]quinoline-8-carboxamide] | 18.3 nM | 3740 nM |
| 21.6 nM | 3790 nM | CN(C(=O)c1ccc2nc(N)c3cnn(C)c3c2c1)[C@@H]1COC(C)(C)c2cc(N3CCn4cncc4C3)ccc21 [Example 86, N-((4S)-7-imidazo[5,1-c]piperazin-7-yl-1,1-dimethylisochroman-4-yl)(4-amino-1-methylpyrazolo[4,5-c]quinolin-8-yl)-N-methylformamide] | 31 nM | 7870 nM |
| 13 nM | 2200 nM | CN(C(=O)c1cc2c3c(c(N)nc2cn1)COC3)C1COC2(CC2)c2cc(C(F)(F)F)ccc21 (stereo not shown) [Example 40, 4-Amino-N-methyl-N-(7'-(trifluoromethyl)spiro[cyclopropane-1,1'-isochroman]-4'-yl)-1,3-dihydrofuro[3,4-c][1,7]naphthyridine-8-carboxamide] | 21.2 nM | 2040 nM |
| 5.3 nM | 767 nM | CN(C(=O)c1ccc2nc(N)c3cnn(C)c3c2c1)C1COC2(CCC2)c2cc(C(F)(F)F)ccc21 (stereo not shown) [Example 30] | 10.9 nM | 862 nM |
| 8.5 nM | 1620 nM | Cc1ncc(-c2ccc3c(c2)C(C)(C)OC[C@H]3N(C)C(=O)c2ccc3nc(N)c4cnn(C)c4c3c2)cn1 [Example 34, (S)-4-amino-N-(1,1-dimethyl-7-(2-methylpyrimidin-5-yl)isochroman-4-yl)-N,1-dimethyl-1H-pyrazolo[4,3-c]quinoline-8-carboxamide] | 5.2 nM | 1660 nM |
